Our source for the 3 h FOB score values is the OligoGym collection.

HELM strings list units from the 5' end as sugar, base in round brackets, then linkage (d deoxyribose, r ribose, m 2'-O-methyl, p phosphodiester). Strings are as the collection lists them; they lack the last nucleoside at the 3' end of the tested compound. [moe] = 2'-O-(2-methoxyethyl) (MOE); [sp] = phosphorothioate linkage; [m5C] = 5-methylcytosine

The series concerns the target LRRK2. Nature of the series: mouse, dose not given. Conditions: ASO.
Substance “RNA1{[moe](A)[sp].[moe](T)p.[moe]([m5C])[sp].[moe](A)[sp].[moe](T)[sp].d(T)[sp].d(G)[sp].d([m5C])[sp].d(T)[sp].d(G)[sp].d([m5C])[sp].d(T)[sp].d([m5C])[sp].d(A)[sp].d(T)[sp].[moe](A)[sp].[moe](T)p.[moe]([m5C])[sp].[moe](T)}$$$$ (last 3' nucleoside missing)” returned a 3 h FOB score of 6 score 0-7.

In the case of “RNA1{[moe](G)[sp].[moe]([m5C])p.[moe]([m5C])[sp].[moe](A)[sp].[moe]([m5C])[sp].d(T)[sp].d([m5C])[sp].d(A)[sp].d(T)[sp].d(G)[sp].d(A)[sp].d(G)[sp].d(G)[sp].d(A)[sp].d([m5C])[sp].[moe](T)[sp].[moe](T)p.[moe]([m5C])[sp].[moe]([m5C])}$$$$ (last 3' nucleoside missing)”, the 3 h FOB score turned out to be 6 score 0-7.

As for “RNA1{[moe](A)[sp].[moe](T)p.[moe](A)[sp].[moe](G)[sp].[moe]([m5C])[sp].d(T)[sp].d(T)[sp].d([m5C])[sp].d([m5C])[sp].d(A)[sp].d([m5C])[sp].d([m5C])[sp].d(A)[sp].d([m5C])[sp].d(A)[sp].[moe](A)[sp].[moe](T)p.[moe](A)[sp].[moe](T)}$$$$ (last 3' nucleoside missing)”, the 3 h FOB score amounted to 2 score 0-7.

On to “RNA1{[moe](T)[sp].[moe](G)p.[moe]([m5C])p.[moe](T)p.[moe](T)[sp].d(T)[sp].d([m5C])[sp].d(A)[sp].d(T)[sp].d(A)[sp].d(G)[sp].d([m5C])[sp].d(T)[sp].d(T)[sp].d([m5C])[sp].[moe]([m5C])p.[moe](A)p.[moe]([m5C])[sp].[moe]([m5C])}$$$$ (last 3' nucleoside missing)”, for which the 3 h FOB score stood at 0 score 0-7.

The substance “RNA1{[moe](A)[sp].[moe](T)p.[moe](T)[sp].[moe](G)[sp].[moe]([m5C])[sp].d([m5C])[sp].d(A)[sp].d([m5C])[sp].d(T)[sp].d([m5C])[sp].d(A)[sp].d(T)[sp].d(G)[sp].d(A)[sp].d(G)[sp].[moe](G)[sp].[moe](A)p.[moe]([m5C])[sp].[moe](T)}$$$$ (last 3' nucleoside missing)” gave a 3 h FOB score of 4 score 0-7.

Consider “RNA1{[moe](G)[sp].[moe](T)p.[moe](G)p.[moe](A)p.[moe](A)[sp].d(G)[sp].d([m5C])[sp].d(A)[sp].d([m5C])[sp].d(T)[sp].d(G)[sp].d(A)[sp].d(A)[sp].d(T)[sp].d([m5C])[sp].[moe]([m5C])p.[moe](A)p.[moe](T)[sp].[moe](A)}$$$$ (last 3' nucleoside missing)”, for which the 3 h FOB score stood at 6 score 0-7.

“RNA1{[moe](A)[sp].[moe](G)p.[moe](G)p.[moe](A)p.[moe](G)[sp].d(A)[sp].d(A)[sp].d(T)[sp].d(G)[sp].d(T)[sp].d(A)[sp].d(T)[sp].d(A)[sp].d(T)[sp].d(G)[sp].[moe]([m5C])p.[moe](T)p.[moe](T)[sp].[moe]([m5C])}$$$$ (last 3' nucleoside missing)” yielded a 3 h FOB score of 6 score 0-7.

On to “RNA1{[moe](T)[sp].[moe](G)p.[moe](A)[sp].[moe](G)[sp].[moe](T)[sp].d(G)[sp].d([m5C])[sp].d(A)[sp].d(T)[sp].d(G)[sp].d(G)[sp].d([m5C])[sp].d(A)[sp].d(T)[sp].d([m5C])[sp].[moe](A)[sp].[moe](A)p.[moe](A)[sp].[moe](A)}$$$$ (last 3' nucleoside missing)”, for which the 3 h FOB score was 5 score 0-7.

In the case of “RNA1{[moe](G)[sp].[moe]([m5C])p.[moe](T)p.[moe](G)p.[moe](T)[sp].d(A)[sp].d(A)[sp].d(T)[sp].d(A)[sp].d([m5C])[sp].d(G)[sp].d(G)[sp].d([m5C])[sp].d(A)[sp].d(T)[sp].[moe]([m5C])p.[moe](T)p.[moe]([m5C])[sp].[moe](G)}$$$$ (last 3' nucleoside missing)”, the 3 h FOB score turned out to be 6 score 0-7.

For the substance “RNA1{[moe](G)[sp].[moe](A)p.[moe](A)[sp].[moe]([m5C])[sp].[moe](T)[sp].d(T)[sp].d(T)[sp].d(A)[sp].d(T)[sp].d(A)[sp].d(T)[sp].d(A)[sp].d(T)[sp].d(A)[sp].d(G)[sp].[moe](T)[sp].[moe](T)p.[moe](A)[sp].[moe](T)}$$$$ (last 3' nucleoside missing)”, the 3 h FOB score came to 2 score 0-7.

“RNA1{[moe](A)[sp].[moe]([m5C])p.[moe]([m5C])p.[moe]([m5C])p.[moe](T)[sp].d(T)[sp].d(T)[sp].d([m5C])[sp].d([m5C])[sp].d(A)[sp].d(T)[sp].d(G)[sp].d(T)[sp].d(G)[sp].d(A)[sp].[moe](A)p.[moe]([m5C])p.[moe](A)[sp].[moe](T)}$$$$ (last 3' nucleoside missing)” showed a 3 h FOB score of 4 score 0-7.

“RNA1{[moe](A)[sp].[moe](T)p.[moe]([m5C])p.[moe]([m5C])p.[moe](A)[sp].d([m5C])[sp].d(A)[sp].d(T)[sp].d(T)[sp].d(T)[sp].d([m5C])[sp].d(T)[sp].d(G)[sp].d(A)[sp].d(A)[sp].[moe](T)p.[moe]([m5C])p.[moe]([m5C])[sp].[moe]([m5C])}$$$$ (last 3' nucleoside missing)” displayed a 3 h FOB score of 4 score 0-7.

The substance “RNA1{[moe](T)[sp].[moe](T)p.[moe](G)[sp].[moe](G)[sp].[moe]([m5C])[sp].d(T)[sp].d(G)[sp].d(G)[sp].d(A)[sp].d(A)[sp].d(A)[sp].d(T)[sp].d(G)[sp].d(A)[sp].d(G)[sp].[moe](T)[sp].[moe](G)p.[moe]([m5C])[sp].[moe](A)}$$$$ (last 3' nucleoside missing)” yielded a 3 h FOB score of 6 score 0-7.

As for “RNA1{[moe](A)[sp].[moe](G)p.[moe](T)p.[moe](G)p.[moe]([m5C])[sp].d(A)[sp].d(T)[sp].d(G)[sp].d(G)[sp].d([m5C])[sp].d(A)[sp].d(T)[sp].d([m5C])[sp].d(A)[sp].d(A)[sp].[moe](A)p.[moe](A)p.[moe](A)[sp].[moe](T)}$$$$ (last 3' nucleoside missing)”, the 3 h FOB score amounted to 1 score 0-7.

In turn, “RNA1{[moe](G)[sp].[moe]([m5C])p.[moe]([m5C])p.[moe]([m5C])p.[moe](A)[sp].d(T)[sp].d(T)[sp].d(T)[sp].d([m5C])[sp].d(T)[sp].d(T)[sp].d([m5C])[sp].d(A)[sp].d(A)[sp].d([m5C])[sp].[moe](A)p.[moe](G)p.[moe](A)[sp].[moe](G)}$$$$ (last 3' nucleoside missing)” had a 3 h FOB score of 0 score 0-7.

Regarding “RNA1{[moe](G)[sp].[moe](T)p.[moe](T)[sp].[moe](A)[sp].[moe](A)[sp].d([m5C])[sp].d(G)[sp].d([m5C])[sp].d(A)[sp].d([m5C])[sp].d(T)[sp].d(T)[sp].d(A)[sp].d(A)[sp].d([m5C])[sp].[moe](A)[sp].[moe](A)p.[moe](T)[sp].[moe](A)}$$$$ (last 3' nucleoside missing)”, the 3 h FOB score worked out at 2 score 0-7.
